Data on one compound can be found in PMC11413854, “Reversible Control of Native GluN2B-Containing NMDA Receptors with Visible Light” (ACS Chemical Neuroscience, 2024).

The assay has as its target T1, GluK2 kainate receptors (Rattus norvegicus, UniProt P42260, I567V/Q621R/Y571C).
T1 construct: expressed in transfected cells; host or cells: Xenopus laevis oocytes (mRNA injection)
The assay can be described thus: TEVC on Xenopus oocytes, GluK2 kainate receptors. In kind it is cell-based. The arrangement: Inhibition, individual values: scale not given here. To be noted: for Inhibition, individual values: GluK2, single cells. From the text: We used cDNA coding for rat GluN1–1a (named GluN1 herein) (GenBank: U08261.1), rat GluN2A (GenBank: D13211.1), mouse GluN2B (GenBank: D10651.2), rat GluA1 flop (GenBank: M36418.2), and rat Myc-GluA2(Q)-flip (GenBank: AF164344.1) cloned into pcDNA3-based expression plasmids. GluK2 (GenBank: Z11548.1) corresponds to the fully RNA-edited version.[80] The GluN2B-ΔNTD construct is from ref[45] and GluN2B–N615K is from ref[81]. Single mutants GluN2B-Q110G and GluN1-L135H were from ref[19]. The GluA2 cDNA contains a Myc tag ([…]) fused between the signal peptide and the N-terminus sequences, and the GluA2 subunit is […] for its Q/R/N site (GluA2(Q)) to allow permeation of homomeric GluA2 receptors.[2] cDNAs coding for rat GluN2C (GenBank: M91563.1) and GluN2D subunits (GenBank: L31611.1) were in prK5 plasmids.
The expression of recombinant GluA1, GluA2(Q), and GluK2 receptors was obtained by oocyte injection of 50 nL of mRNAs (at 1 μg/μL). mRNAs were generated using the T7 (GluA1 and GluA2) and T3 (GluK2) mMessage mMachine transcription kits (Invitrogen) after cDNA linearization with the SacII restriction enzyme. The injected oocytes were stored in the same conditions as for NMDARs and used 72–96 h postinjection.
TEVC recordings were performed 1–3 days following injection. TEVC recordings were performed using an Oocyte Clamp amplifier OC-725 (Warner Instruments) and computer-controlled via a 1440A Digidata (Molecular Devices). Currents were sampled at 100 Hz and low-pass-filtered at 20 Hz using an 8-pole Bessel filter (900 Series, Frequency Devices Inc.). Data were collected with Clampfit 10.3. During the recording, the cells were continuously perfused with external recording Ringer solution at pH 7.3 (in mM: 100 NaCl, 0.3 BaCl2, 5 HEPES, and 2.5 KCl, pH adjustment to 7.3 by the addition of NaOH). The NMDA currents were induced by simultaneous application of L-glutamate and glycine (agonist solution) at saturating concentration (100 μM each), and DTPA (10 μM) to prevent receptor inhibition by ambient zinc (∼20 nM).[83] A control solution (100 μM glycine and 10 μM DTPA in Ringer pH 7.3) was used for washout of drug and test solutions. AMPA and kainate receptor currents were induced in the same conditions as NMDA currents (100 μM glutamate and glycine + 10 μM DTPA). Oocytes expressing GluK2 kainate receptors were treated with concanavalin A ([…], equivalent to 1.1 mg/mL) during 10 min before recording to decrease receptor desensitization. Unless notified, recordings were performed at a holding potential of −60 mV. All experiments were performed at room temperature.
Oocytes expressing GluK2 receptors were treated with concanavalin A ([…]) before recording to decrease
receptor desensitization.

Structures are written as SMILES. Where “and” joins values, the source holds several entries; their conditions need not be identical. Equal values may be shown once. Read-outs that look alike come from different tables or passages of the source.

T1 sequence (P42260 32-908 I567V/Y571C/Q621R): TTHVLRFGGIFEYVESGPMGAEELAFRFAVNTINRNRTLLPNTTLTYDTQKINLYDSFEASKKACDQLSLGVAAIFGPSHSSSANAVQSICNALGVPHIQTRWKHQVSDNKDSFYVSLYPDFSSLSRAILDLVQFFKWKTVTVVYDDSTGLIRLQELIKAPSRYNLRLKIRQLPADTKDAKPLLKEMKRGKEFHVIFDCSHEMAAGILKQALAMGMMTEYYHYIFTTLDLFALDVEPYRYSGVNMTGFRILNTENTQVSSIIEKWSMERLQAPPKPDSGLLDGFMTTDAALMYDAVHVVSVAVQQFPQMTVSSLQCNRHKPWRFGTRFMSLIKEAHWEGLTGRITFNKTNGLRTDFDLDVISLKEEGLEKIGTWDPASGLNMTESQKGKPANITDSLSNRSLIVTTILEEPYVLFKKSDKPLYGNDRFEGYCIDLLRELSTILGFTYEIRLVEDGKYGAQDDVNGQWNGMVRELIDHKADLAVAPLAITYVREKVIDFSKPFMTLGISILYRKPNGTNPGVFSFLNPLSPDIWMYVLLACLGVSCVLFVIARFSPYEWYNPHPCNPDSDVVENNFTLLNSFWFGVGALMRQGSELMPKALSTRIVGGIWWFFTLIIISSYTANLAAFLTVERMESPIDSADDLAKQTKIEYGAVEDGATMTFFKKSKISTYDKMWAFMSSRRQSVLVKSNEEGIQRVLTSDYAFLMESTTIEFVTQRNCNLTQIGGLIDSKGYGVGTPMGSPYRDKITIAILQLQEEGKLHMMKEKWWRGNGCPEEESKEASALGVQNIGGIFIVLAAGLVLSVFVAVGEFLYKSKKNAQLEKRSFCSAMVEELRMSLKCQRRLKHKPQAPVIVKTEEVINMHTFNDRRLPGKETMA

Broadly, the inhibition is the change of the read-out against control, counted positive when it falls. For `c1ccc(/N=N/c2ccc(CCNc3ccncc3)cc2)cc1` [OptoNAM-3, (E)-N-(4-(Phenyldiazenyl)phenethyl)pyridin-4-amine], the inhibition at 10 µM by setting is: (10 µM OptoNAM-3 365 nm PSS, construct GluK2, read-out: Inhibition (%)) -1.6%; (10 µM OptoNAM-3 dark PSS (trans), construct GluK2, read-out: Inhibition (%)) 3.1%; (10 µM, dark PSS, concanavalin A treated, read-out: inhibition of GluK2 currents) 3.1 ± 3.4%. Further, the “Inhibition, individual values” (10 µM OptoNAM-3 dark PSS (trans) as headed, second block) is -0.01064 and 0.02708 and -0.08821 and 0.02098 and -0.02821; the “Inhibition, individual values” (10 µM OptoNAM-3 dark PSS (trans), first block) was 0.1443 and -0.06723 and 0.004392 and 0.02857 and 0.0441. Besides, the “inhibition of GluK2 currents” value (10 µM, dark PSS, concanavalin A treated) is given as “no effect”.
